Data on nine molecules can be found in patent publication US10683297B2 (Sunshine Lake Pharma Co., Ltd., priority 2017, dated 2020).

Data set [1] in a line: Compound stability in rat liver microsomes. Format: in vitro ADME. Conditions: for CLint scaled at 5 μM: liver microsomes, pH 7.4, in vivo CLint extrapolated from rat liver microsome incubation; for half-life at 5 μM: rat liver microsomes 0.5 mg protein/mL, compound 5 μM, NADPH 1.0 mM, pH 7.4, 37° C., read-out: Rat T1/2. As to the method:
(§1) The LC/MS/MS system used in the analysis consists of an Agilent 1200 Series vacuum degasser, binary pump, well-plate autosampler, thermostatted column compartment, the Agilent G6430 Triple Quadrupole Mass Spectrometer with an electrosprayionization (ESI) source. Quantitative analysis was carried out using MRM mode. The parameters for MRM transitions are in the Table A.
(§2) An Agilent XDB-C18, 2.1×30 mm, 3.5 μM column was used for the analysis. 5 μL of the samples were injected. Analysis condition: The mobile phase was 0.1% formic acid in water (A) and 0.1% formic acid in methanol (B). The flow rate was 0.4 mL/min. And the gradient of Mobile phase was in the Table B.
(§3) Alternatively, an Agilent 6330 series LC/MS/MS spectrometer equipped with G1312A binary pumps, a G1367A autosampler and a G1314C UV detector were used in the analysis. An ESI source was used on the LC/MS/MS spectrometer. The analysis was done in positive ion mode as appropriate and the MRM transition for each analyte was optimized using standard solution. A Capcell MP-C18 100×4.6 mm I.D., 5 uM column (Phenomenex, Torrance, Calif., USA) was used during the analysis. The mobile phase was 5 mM ammonia acetate, 0.1% MeOH in water (A): 5 mM ammonia acetate, 0.1% MeOH in acetonitrile (B) (70/30, v/v). The flow rate was 0.6 mL/min. Column was maintained at ambient temperature. 20 μL of the samples were injected.
(§4) Human or rat liver microsomes incubations were conducted in duplicate in polypropylene tubes. The typical incubation mixtures consisted of human or rat liver microsomes (0.5 mg protein/mL), compounds of interest (5 μM) and NADPH (1.0 mM) in a total volume of 200 μL potassium phosphate buffer (PBS, 100 mM, pH 7.4). Compounds were dissolved in DMSO and diluted with PBS such that the final concentration of DMSO was 0.05%. The enzymatic reactions were commenced with the addition of […] after a 3-min preincubation and incubated in a water bath open to the air at 37° C. Reactions were terminated at various time points (0, 5, 10, 15, 30, 60 min) by adding equal volume of ice-cold acetonitrile. The samples were stored at […] until LC/MS/MS assays.
(§5) The concentrations of compounds in the incubation mixtures of human or rat liver microsomes were determined by a LC/MS/MS method. The ranges of the linearity in the concentration range were determined for each tested compounds.
(§6) A parallel incubation was performed using denatured microsomes as the negative control, and reactions were terminated at various time points (0, 15, 60 min) after incubation at 37° C.
(§7) Dextromethorphan (70 μM) was selected as the positive control, and reactions were terminated at various time points (0, 5, 10, 15, 30, 60 min) after incubation at 37° C. Both positive and negative control samples were included in each assay to ensure the integrity of the microsomal incubation system.
(§8) The concentrations of compounds in human or rat liver microsome incubations were plotted as a percentage of the relevant zero time point control for each reaction. The in vivo CLint were extrapolated (ref.: Naritomi, Y.; Terashita, S.; Kimura, S.; Suzuki, A.; Kagayama, A.; and Sugiyama, Y.; Prediction of human hepatic clearance from in vivo animal experiments and in vitro metabolic studies with liver microsomes from animals and humans. Drug Metab. Dispos., 2001, 29: 1316-1324).

The nature of data set [2]: Compound stability in human liver microsomes. To be noted: for half-life at 5 μM: human liver microsomes 0.5 mg protein/mL, compound 5 μM, NADPH 1.0 mM, pH 7.4, 37° C., read-out: Human T1/2; for CLint scaled at 5 μM: liver microsomes, pH 7.4, in vivo CLint extrapolated from human liver microsome incubation. Type of data set: in vitro ADME. Here is the method:
as §1, §2, §3, §4, §5, §6, §7, §8

Data set [3] is described as follows: Pharmacokinetics after intravenous and oral administration in rats. To be noted: for Clearance (CL) after iv dosing / AUC(0-t) / half-life / Vd: dose 1 mg/kg (Ex. 9: 0.6, Ex. 18: 0.5, Ex. 50: 0.96 mg/kg), iv dosing; for AUC(0-t) / half-life / Vd / bioavailability: rat, plasma; for Vd: read-out: Vss; for bioavailability: oral (generally 5 or 10 mg/kg) versus iv dosing, read-out: F (oral bioavailability). Format: in vivo. As to the method:
as §1, §2, §3
The compounds disclosed herein are assessed in pharmacokinetic studies in mice, rats, dogs or monkeys. The compounds are administered as a water solution, 2% HPMC+1% TWEEN®80 in water solution, 5% DMSO+5% solutol in saline, 4% MC suspension or capsule. For the intravenous administration, the animals are generally given at about 0.5, 0.6, 1 or 2 mg/kg dose. For the oral (p.o.) dosing, mice and rats are generally given 5 or 10 mg/kg dose, and dogs and monkeys are generally given 10 mg/kg dose. The blood samples (0.3 mL) are drawn at 0.25, 0.5, 1.0, 2.0, 3.0, 4.0, 6.0, 8.0, 12 and 24 h time points or 0.083, 0.25, 0.5, 1.0, 2.0, 4.0, 6.0, 8.0 and 24 h time points and centrifuged at 3,000 or 4000 rpm for 2 to 10 min. The plasma solutions are collected, and stored at […] until analyzed by LC/MS/MS as described above.

Take `CCC1CN(c2ccc(C#N)cn2)CCC1Nc1nc(Nc2ccn3c(C)nnc3c2)ncc1Cl` (stereo not drawn) [Example 17, 6-(4-((5-chloro-2-((3-methyl-[1,2,4]triazolo[4,3-a]pyridin-7-yl)amino)pyrimidin-4-yl)amino)-3-ethylpiperidin-1-yl)nicotinonitrile]: in data set [1], the intrinsic clearance (CLint scaled) at 5 μM was 302 mL/min/kg and the half-life at 5 μM turned out to be 8.22 min. Besides, in data set [2], the half-life at 5 μM was determined as 44 min and the CLint scaled at 5 μM was 39.5 mL/min/kg. In addition, in data set [3], the “Clearance (CL) after iv dosing” value turned out to be 17.8 mL/min/kg, the AUC(0-t) stood at 949 ng·h/mL, the half-life was 36 min and the Vd was 0.67 L/kg. The bioavailability in data set [3] amounted to 48.2%.

For the molecule `Cc1c(Nc2ncc(Cl)c(NC3CCN(c4ccc(C#N)nn4)CC3)n2)ccn2c(C)cnc12` [Example 29, 6-(4-((5-chloro-2-((3,8-dimethylimidazo[1,2-a]pyridin-7-yl)amino)pyrimidin-4-yl)amino)piperidin-1-yl)pyridazine-3-carbonitrile], in data set [1], the CLint scaled at 5 μM is 76.8 mL/min/kg and the half-life at 5 μM is 32.4 min. Moreover, in data set [2], the half-life at 5 μM worked out at 43.9 min and the CLint scaled at 5 μM is 39.6 mL/min/kg. In data set [3], the “Clearance (CL) after iv dosing” value was determined as 22.3 mL/min/kg, the AUC(0-t) turned out to be 751 ng·h/mL, the half-life was 39.6 min and the Vd is 1.16 L/kg. The bioavailability in data set [3] is 38.5%.

For the molecule `Cc1nc2ccc(Nc3ncc(Cl)c(NC4CCN(c5ccc(C#N)nn5)CC4)n3)cn2n1` [Example 34, 6-(4-((5-chloro-2-((2-methyl-[1,2,4]triazolo[1,5-a]pyridin-6-yl)amino)pyrimidin-4-yl)amino)piperidin-1-yl)pyridazine-3-carbonitrile], in data set [1], the CLint scaled at 5 μM is 87.5 mL/min/kg and the half-life at 5 μM was found to be 28.4 min. In addition, in data set [2], the half-life at 5 μM was 125 min and the intrinsic clearance (CLint scaled) at 5 μM was 13.9 mL/min/kg. In data set [3], the “Clearance (CL) after iv dosing” value is 10.5 mL/min/kg, the area under the curve AUC(0-t) was determined as 1560 ng·h/mL, the half-life was 72 min and the Vd is 1.53 L/kg. Also, the bioavailability in data set [3] is 46.9%.

Regarding `Cc1nc2cc(Nc3ncc(Cl)c(NC4CCN(c5ccc(C#N)nn5)CC4)n3)ccn2n1` [Example 35, 6-(4-((5-chloro-2-((2-methyl-[1,2,4]triazolo[1,5-a]pyridin-7-yl)amino)pyrimidin-4-yl)amino)piperidin-1-yl)pyridazine-3-carbonitrile], in data set [1], the intrinsic metabolic clearance (CLint scaled) at 5 μM was 17.2 mL/min/kg and the half-life at 5 μM was determined as 144 min. Also, in data set [2], the half-life at 5 μM amounted to 183 min and the CLint scaled at 5 μM is 9.5 mL/min/kg. In data set [3], the “Clearance (CL) after iv dosing” value was 5.33 mL/min/kg, the AUC(0-t) came to 3110 ng·h/mL, the half-life was 156 min and the Vd turned out to be 0.53 L/kg. Moreover, the bioavailability in data set [3] was 57.6%.

Consider `Cc1nc2cc(Nc3ncc(Cl)c(NC4CCN(c5ccc(C#N)nn5)CC4)n3)ccc2n1C` [Example 49, 6-(4-((5-chloro-2-((1,2-dimethyl-1H-benzo[d]imidazol-5-yl)amino)pyrimidin-4-yl)amino)piperidin-1-yl)pyridazine-3-carbonitrile], for which, in data set [1], the intrinsic metabolic clearance (CLint scaled) at 5 μM was 76.5 mL/min/kg and the half-life at 5 μM worked out at 32.5 min. For the same molecule, in data set [2], the half-life at 5 μM is 52.7 min and the intrinsic metabolic clearance (CLint scaled) at 5 μM was 33 mL/min/kg. For the same molecule, in data set [3], the “Clearance (CL) after iv dosing” value came out at 10.8 mL/min/kg, the area under the curve AUC(0-t) was 1540 ng·h/mL, the half-life is 36 min and the Vd was determined as 0.56 L/kg. Moreover, in data set [3], the bioavailability worked out at 79.6%.

Take `CC(O)Cn1cnc2cc(Nc3ncc(Cl)c(NC4CCN(c5ccc(C#N)cn5)CC4)n3)cnc21` (stereo not drawn) [Example 52, 6-(4-((5-chloro-2-((3-(2-hydroxypropyl)-3H-imidazo[4,5-b]pyridin-6-yl)amino)pyrimidin-4-yl)amino)piperidin-1-yl)nicotinonitrile]: in data set [1], the CLint scaled at 5 μM was 85.1 mL/min/kg and the half-life at 5 μM was 29.2 min. Further, in data set [2], the half-life at 5 μM is 47.8 min and the CLint scaled at 5 μM is 36.4 mL/min/kg. Also, in data set [3], the “Clearance (CL) after iv dosing” value came to 15.2 mL/min/kg, the AUC(0-t) is 1090 ng·h/mL, the half-life was 51.6 min and the Vd turned out to be 0.96 L/kg. For the same molecule, the bioavailability in data set [3] was 34.1%.

Turning to `CC(O)Cn1ccc2cc(Nc3ncc(Cl)c(NC4CCN(c5ccc(C#N)cn5)CC4)n3)cnc21` (stereo not drawn) [Example 54, 6-(4-((5-chloro-2-((1-(2-hydroxypropyl)-1H-pyrrolo[2,3-b]pyridin-5-yl)amino)pyrimidin-4-yl)amino)piperidin-1-yl)nicotinonitrile], in data set [1], the CLint scaled at 5 μM was 634 mL/min/kg and the half-life at 5 μM stood at 3.92 min. Moreover, in data set [2], the half-life at 5 μM was determined as 8.52 min and the intrinsic metabolic clearance (CLint scaled) at 5 μM is 204 mL/min/kg. Also, in data set [3], the “Clearance (CL) after iv dosing” value is 23.8 mL/min/kg, the area under the curve AUC(0-t) was 714 ng·h/mL, the half-life is 47.4 min and the Vd was determined as 0.95 L/kg. Also, the bioavailability in data set [3] was determined as 36.6%.

`CN(C)C(=O)c1nc2cc(Nc3ncc(Cl)c(NC4CCN(c5ccc(C#N)cn5)CC4)n3)ccn2n1` [Example 83, 7-((5-chloro-4-((1-(5-cyanopyridin-2-yl)piperidin-4-yl)amino)pyrimidin-2-yl)amino)-N,N-dimethyl-[1,2,4]triazolo[1,5-a]pyridine-2-carboxamide]: in data set [1], the CLint scaled at 5 μM is 193 mL/min/kg and the half-life at 5 μM was determined as 12.9 min. In data set [2], the half-life at 5 μM came out at 15.1 min and the CLint scaled at 5 μM was 115 mL/min/kg. In addition, in data set [3], the “Clearance (CL) after iv dosing” value was determined as 9.33 mL/min/kg, the AUC(0-t) came to 1830 ng·h/mL, the half-life is 84.6 min and the Vd was determined as 0.65 L/kg. For the same molecule, the bioavailability in data set [3] came out at 38.6%.

Consider `CC(C)(O)c1nc2cc(Nc3ncc(Cl)c(NC4CCN(c5ccc(C#N)nn5)CC4F)n3)ccn2n1` (stereo not drawn) [Example 88, 6-(4-((5-chloro-2-((2-(2-hydroxypropan-2-yl)-[1,2,4]triazolo[1,5-a]pyridin-7-yl)amino)pyrimidin-4-yl)amino)-3-fluoropiperidin-1-yl)pyridazine-3-carbonitrile], for which, in data set [1], the intrinsic clearance (CLint scaled) at 5 μM is 13.2 mL/min/kg and the half-life at 5 μM is 188 min. Besides, in data set [2], the half-life at 5 μM amounted to 4720 min and the intrinsic metabolic clearance (CLint scaled) at 5 μM was 0.4 mL/min/kg. Also, in data set [3], the “Clearance (CL) after iv dosing” value was 17.5 mL/min/kg, the AUC(0-t) was 1460 ng·h/mL, the half-life is 32.3 min and the Vd came out at 0.688 L/kg. Besides, in data set [3], the bioavailability was determined as 4.5%.
